Experimental findings from patent publication US8507540B2, “Oxazolidinone derivatives containing new bicyclic group, having antibacterial activity, and method for treating pathogenic bacterial infections using the same” (Korean Institute of Science and Technology, priority 2011, dated 2013) are described below.

Structures are written as SMILES. Values after ≈ are worked out from the molar mass of the structure shown.

The test system of test [1] is MRSA and other gram positive bacteria; Staphylococcus sp., Enterococcus sp. and Haemophilus influenza. Kind of test: In vitro antibacterial activity test, overall statements on the strain panel. The note with it: various strains of Table 1.
For test [2], the system named is Coagulase negative staphylococci, methicillin resistant. Kind of test: In vitro antibacterial activity test, Agar Dilution MIC. The conditions noted are these: 18 h. (In general: In agar dilution the substance is mixed into plates at graded concentrations.)
For test [3], the system named is Staphylococcus pneumoniae, penicillin non-susceptible. Described as above. The conditions noted are these: 18 h.
Test [4] deals with Staphylococcus pneumoniae, penicillin susceptible. Described as above. The conditions noted are these: 18 h.
Test [5] deals with Enterococcus faecium, vancomycin susceptible. The test is described as above. The note with it: 18 h.
In test [6] the test system is Haemophilus influenzae, beta-lactamase-positive. Described as above. The note with it: 18 h.
In test [7] the test system is Staphylococcus pyogenes. The test is described as above. The note with it: Staphylococcus aureus, 18 h.
Test [8] relates to Enterococcus faecalis, vancomycin resistant. The description is as above. The note with it: 18 h.
The test system of test [9] is Enterococcus faecium, vancomycin resistant. The test is described as above. The note with it: 18 h.
In test [10] the test system is Mycobacterium tuberculosis (Mtb) H37Rv. Briefly: In vitro antituberculous activity test, Microplate Alamar Blue Assay. The note with it: versus linezolid. Format: cell-based. A general note: Alamar Blue is a resazurin reagent that responds to reducing activity.
The subject of test [11] is Enterococcus faecalis, vancomycin susceptible. Briefly: In vitro antibacterial activity test, Agar Dilution MIC. The note with it: 18 h.
For test [12], the system named is Coagulase negative staphylococci, methicillin susceptible. Described as above. The note with it: 18 h.
The test system of test [13] is Staphylococcus aureus, methicillin susceptible. Described as above. The conditions noted are these: 18 h.
The subject of test [14] is Staphylococcus agalactiae. The test is described as above. The note with it: 18 h.
The test system of test [15] is Staphylococcus aureus, methicillin resistant. Described as above. The conditions noted are these: 18 h.

With `CC(=O)NC[C@H]1CN(c2ccc(N3CC4C=C(CC#N)CC4C3)c(F)c2)C(=O)O1` (stereo partly drawn) [Example 2, N-[[(5S)-3-[4-(5-cyanomethyl-3,3a,4,6a-tetrahydro-1H-cyclopenta[c]pyrrol-2-yl)-3-fluorophenyl]-2-oxo-5-oxazolidinyl]methyl]acetamide], the “antibacterial activity against the strain panel” value in test [1] was “high antibacterial activities”. Besides, the MIC in [2] stood at 3.1 µg/mL (≈ 7.78 µM); in [3] it was 0.7 µg/mL (≈ 1.76 µM); in test [4], 0.7 µg/mL (≈ 1.76 µM); in [5] it was 1.5 µg/mL (≈ 3.76 µM); in [6] it was 1.5 µg/mL (≈ 3.76 µM); in test [7], 0.7 µg/mL (≈ 1.76 µM). Moreover, the MIC in test [8] came to 3.1 µg/mL (≈ 7.78 µM); in test [9], 1.5 µg/mL (≈ 3.76 µM); in [11] it was 1.5 µg/mL (≈ 3.76 µM); in test [12], 3.1 µg/mL (≈ 7.78 µM); in [13] it was 3.1 µg/mL (≈ 7.78 µM); in [14], 1.5 µg/mL (≈ 3.76 µM). This compound had an MIC in test [15] of 1.5 µg/mL (≈ 3.76 µM). In addition, the “antituberculous activity compared to linezolid” value in test [10] was “antibacterial effects equivalent to linezolid”.

Regarding `CON=C1CC2CN(c3ccc(N4C[C@H](Cn5ccnn5)OC4=O)cc3F)CC2C1` (stereo partly drawn) [Example 6, (5R)-3-[3-fluoro-4-(5-methoxyimino-hexahydro-cyclopenta[c]pyrrol-2-yl)phenyl]-5-(1,2,3-triazol-1-ylmethyl)oxazolidin-2-one], the MIC was 6.2 µg/mL (≈ 15 µM) in [2]; 0.1 µg/mL (≈ 0.241 µM) in test [3]; 0.3 µg/mL (≈ 0.724 µM) in test [4]; 1.5 µg/mL (≈ 3.62 µM) in test [5]; 0.3 µg/mL (≈ 0.724 µM) in test [6]; 0.1 µg/mL (≈ 0.241 µM) in test [7]. The MIC in [8] turned out to be 3.1 µg/mL (≈ 7.48 µM); in [9], 1.5 µg/mL (≈ 3.62 µM); in [11] it was 1.5 µg/mL (≈ 3.62 µM); in [12] it was 6.2 µg/mL (≈ 15 µM); in [13], 6.2 µg/mL (≈ 15 µM); in test [14], 0.3 µg/mL (≈ 0.724 µM). In test [15], this compound showed an MIC of 6.2 µg/mL (≈ 15 µM). Besides, the “antituberculous activity compared to linezolid” value in test [10] is given as “antibacterial effects equivalent to linezolid”.

In the case of `CC(=O)NC[C@H]1CN(c2ccc(N3CCOCC3)c(F)c2)C(=O)O1` [LZD, linezolid, reference compound], the MIC was 3.1 µg/mL (≈ 9.19 µM) in [2]; 0.7 µg/mL (≈ 2.07 µM) in test [3]; 0.7 µg/mL (≈ 2.07 µM) in test [4]; 1.5 µg/mL (≈ 4.45 µM) in test [5]; 0.7 µg/mL (≈ 2.07 µM) in [6]; 0.7 µg/mL (≈ 2.07 µM) in [7]. In addition, the MIC came to 1.5 µg/mL (≈ 4.45 µM) in [8]; 1.5 µg/mL (≈ 4.45 µM) in [9]; 1.5 µg/mL (≈ 4.45 µM) in test [11]; 3.1 µg/mL (≈ 9.19 µM) in test [12]; 3.1 µg/mL (≈ 9.19 µM) in test [13]; 1.5 µg/mL (≈ 4.45 µM) in test [14]. Besides, the MIC in test [15] came out at 3.1 µg/mL (≈ 9.19 µM).

On to `O=C1O[C@@H](Cn2ccnn2)CN1c1ccc(N2CC3CC(=NO)CC3C2)c(F)c1` (stereo partly drawn) [Example 5, (5R)-3-[3-fluoro-4-(5-hydroxyimino-hexahydro-cyclopenta[c]pyrrol-2-yl)phenyl]-5-(1,2,3-triazol-1-ylmethyl)oxazolidin-2-one], for which the MIC in test [2] amounted to 6.2 µg/mL (≈ 15.5 µM); in [3] it was 0.7 µg/mL (≈ 1.75 µM); in [4], 1.5 µg/mL (≈ 3.75 µM); in [5], 3.1 µg/mL (≈ 7.74 µM); in test [6], 3.1 µg/mL (≈ 7.74 µM); in [7] it was 0.7 µg/mL (≈ 1.75 µM). Moreover, the MIC in test [8] amounted to 6.2 µg/mL (≈ 15.5 µM); in test [9], 6.2 µg/mL (≈ 15.5 µM); in [11] it was 6.2 µg/mL (≈ 15.5 µM); in [12] it was 6.2 µg/mL (≈ 15.5 µM); in test [13], 6.2 µg/mL (≈ 15.5 µM); in test [14], 1.5 µg/mL (≈ 3.75 µM). This compound yielded an MIC in test [15] of 6.2 µg/mL (≈ 15.5 µM).

Take `CC(=O)NC[C@H]1CN(c2ccc(N3CC4C=C(C#N)CC4C3)c(F)c2)C(=O)O1` (stereo partly drawn) [Example 3, N-[[(5S)-3-[4-(5-cyano-3,3a,4,6a-tetrahydro-1H-cyclopenta[c]pyrrol-2-yl)-3-fluorophenyl]-2-oxo-5-oxazolidinyl]methyl]acetamide]: in [1], the “antibacterial activity against the strain panel” value is given as “high antibacterial activities”. In addition, the MIC in [2] is 3.1 µg/mL (≈ 8.06 µM); in test [3], 0.3 µg/mL (≈ 0.78 µM); in test [4], 0.7 µg/mL (≈ 1.82 µM); in test [5] it was 1.5 µg/mL (≈ 3.9 µM); in test [6], 0.3 µg/mL (≈ 0.78 µM); in test [7] it was 0.7 µg/mL (≈ 1.82 µM). The MIC in [8] came out at 3.1 µg/mL (≈ 8.06 µM); in test [9], 1.5 µg/mL (≈ 3.9 µM); in test [11] it was 3.1 µg/mL (≈ 8.06 µM); in test [12], 3.1 µg/mL (≈ 8.06 µM); in test [13] it was 3.1 µg/mL (≈ 8.06 µM); in [14] it was 1.5 µg/mL (≈ 3.9 µM). In test [15], this compound returned an MIC of 1.5 µg/mL (≈ 3.9 µM). In addition, the “antituberculous activity compared to linezolid” value in test [10] is given as “more excellent antibacterial activities than linezolid”.

Turning to `N#CCC1=CC2CN(c3ccc(N4C[C@H](Cn5ccnn5)OC4=O)cc3F)CC2C1` (stereo partly drawn) [Example 8, (5R)-3-[4-(5-cyanomethyl-3,3a,4,6a-tetrahydro-1H-cyclopenta[c]pyrrol-2-yl)-3-fluorophenyl]-5-(1,2,3-triazol-1-ylmethyl)oxazolidin-2-one], the MIC was 6.2 µg/mL (≈ 15.2 µM) in [2]; 1.5 µg/mL (≈ 3.67 µM) in [3]; 3.1 µg/mL (≈ 7.59 µM) in test [4]; 6.2 µg/mL (≈ 15.2 µM) in test [5]; 1.5 µg/mL (≈ 3.67 µM) in test [6]; 1.5 µg/mL (≈ 3.67 µM) in test [7]. The MIC in [8] came to 6.2 µg/mL (≈ 15.2 µM); in [9], 6.2 µg/mL (≈ 15.2 µM); in test [11], 6.2 µg/mL (≈ 15.2 µM); in test [12], 6.2 µg/mL (≈ 15.2 µM); in test [13], 6.2 µg/mL (≈ 15.2 µM); in test [14] it was 3.1 µg/mL (≈ 7.59 µM). The MIC in test [15] was determined as 1.5 µg/mL (≈ 3.67 µM).

For the compound `N#CC1=CC2CN(c3ccc(N4C[C@H](Cn5ccnn5)OC4=O)cc3F)CC2C1` (stereo partly drawn) [Example 9, (5R)-3-[4-(5-cyano-3,3a,4,6a-tetrahydro-1H-cyclopenta[c]pyrrol-2-yl)-3-fluorophenyl]-5-(1,2,3-triazol-1-ylmethyl)oxazolidin-2-one], the MIC in test [2] was 3.1 µg/mL (≈ 7.86 µM); in [3], 0.7 µg/mL (≈ 1.77 µM); in [4], 1.5 µg/mL (≈ 3.8 µM); in test [5], 3.1 µg/mL (≈ 7.86 µM); in [6], 0.7 µg/mL (≈ 1.77 µM); in test [7], 0.7 µg/mL (≈ 1.77 µM). The MIC is 3.1 µg/mL (≈ 7.86 µM) in test [8]; 3.1 µg/mL (≈ 7.86 µM) in test [9]; 3.1 µg/mL (≈ 7.86 µM) in test [11]; 3.1 µg/mL (≈ 7.86 µM) in [12]; 3.1 µg/mL (≈ 7.86 µM) in [13]; 1.5 µg/mL (≈ 3.8 µM) in [14]. This compound registered an MIC in test [15] of 1.5 µg/mL (≈ 3.8 µM).

On to `CC(=O)NC[C@H]1CN(c2ccc(N3CC4CC(=CC#N)CC4C3)c(F)c2)C(=O)O1` (stereo partly drawn) [Example 1, N-[[(5S)-3-[4-(5-cyanomethylene-hexahydro-cyclopenta[c]pyrrol-2-yl)-3-fluorophenyl]-2-oxo-5-oxazolidinyl]methyl]acetamide], for which the MIC in [2] turned out to be 3.1 µg/mL (≈ 7.78 µM); in test [3], 0.7 µg/mL (≈ 1.76 µM); in test [4], 0.7 µg/mL (≈ 1.76 µM); in test [5] it was 0.7 µg/mL (≈ 1.76 µM); in [6] it was 0.7 µg/mL (≈ 1.76 µM); in test [7], 0.7 µg/mL (≈ 1.76 µM). Further, the MIC in test [8] stood at 1.5 µg/mL (≈ 3.76 µM); in test [9], 1.5 µg/mL (≈ 3.76 µM); in test [11], 1.5 µg/mL (≈ 3.76 µM); in test [12], 3.1 µg/mL (≈ 7.78 µM); in test [13] it was 3.1 µg/mL (≈ 7.78 µM); in test [14], 1.5 µg/mL (≈ 3.76 µM). For the same compound, the MIC in test [15] amounted to 3.1 µg/mL (≈ 7.78 µM). Moreover, the “antituberculous activity compared to linezolid” value in [10] is given as “antibacterial effects equivalent to linezolid”.
